The text below walks through data of patent US20050026849A1, “Water soluble formulations of digitalis glycosides for treating cell-proliferative and other diseases” (priority 2003, published 2005).

Series [1] concerns androgen-independent human prostate cancer cell lines. Conditions: in vitro; cited from earlier work.
For series [2] the following is noted: rapidly dissolving γ-cyclodextrin complex (molar ratio 1:4), oral, dogs; cited from earlier work.
Series [3] concerns primary cultures of tumor cells from patients and a human cell line panel. Conditions: cited from earlier work.
Series [4] deals with different human malignant cell lines. The conditions noted are these: non-toxic concentrations; cited from earlier work.
For series [5] the following is noted: oral tablet containing 0.25 mg, humans; cited from earlier work.
A short description of series [6]: Solubilization in aqueous hydroxypropyl-cyclodextrin solution. The class given is physicochemical. As for the experimental part:
(§1) 100 milligrams of oleandrin was weighed and placed in a 5 mL scintillation tube. 1.5 mL of absolute ethanol was added to the tube and shaken until the oleandrin was completely dissolved. 5 grams of pyrogen free hydroxypropyl-β-cyclodextrin (sold by, Sigma-Aldrich, Inc., St. Louis, Mo., USA) was weighed on an analytical scale and placed in a graduated cylinder. Water was added with shaking until the volume reached 90 ml. The above ethanolic solution of oleandrin was added to the aqueous solution containing hydroxypropyl-β-cyclodextrin with stirring. A clear solution was obtained. Water was added to the clear solution to make the total volume to 100 mL. Thus, 1 mg oleandrin was effectively solubilized in 1 ml of 5% solution of hydroxypropyl-β-cyclodextrin. The solution was sterile-filtered through a 0.22 μm filter. The suspension was frozen below −40° C. and lyophilized. The lyophilized cake was reconstituted with sterile water for injection prior to further use.
The previous experiment was repeated using a 2% solution of hydroxypropyl-β-cyclodextrin prepared as in Example 1. 100 mg of oleandrin was dissolved in 100 mL of water containing 2.5 grams of hydroxypropyl-β-cyclodextrin. The solution was sterile-filtered through a 0.22 μm filter. The solution was frozen below −40° C. and lyophilized. The lyophilized cake was reconstituted with sterile water for injection prior to further use.
The experiment in example 1 was repeated using a 100 mg of Odoroside-A instead of oleandrin. 100 mg of Odoroside-A was dissolved in 5 grams of hydroxypropyl-β-cyclodextrin in 100 mL of water. The solution was sterile-filtered through a 0.22 μm filter. The solution was frozen below −40° C. and lyophilized. The lyophilized cake was reconstituted with sterile water for injection prior to further use.
as §1, with “5mL” for “5 mL”, “1-2” for “1.5”, “2.5” for “5”, “hydroxypropyl-γ-cyclodextrin” for “hydroxypropyl-β-cyclodextrin”, “2.5%” for “5%”, “hydroxypropyl-γ-cyclodextrin.” for “hydroxypropyl-β-cyclodextrin.”
as §1, with “of Proscillaridin-A” for “of oleandrin”, “tube. 1-2” for “tube. 1.5”, “the Proscillaridin-A” for “the oleandrin”, “dissolved. 2” for “dissolved. 5”, “mg Proscillaridin-A” for “mg oleandrin”, “of 2%” for “of 5%”
The previous experiment was repeated using a 5% solution of hydroxypropyl-β-cyclodextrin prepared as in Example 5. […]

The subject of series [7] is FGF-2 release from PC3 cells. Conditions: 0.1 ng/mL; cited from earlier work.
The next series deals with human cancer cells. Conditions: cited from earlier work.
For series [8] the following is noted: in vivo; cited from earlier work.
In series [9] the test system is various cancer cell lines. The conditions noted are these: cited from earlier work.
In a further series the test system is NF-κB. The conditions noted are these: cited from earlier work.
Series [10] concerns FGF-2 release from DU145 cells. The conditions noted are these: 0.1 ng/mL; cited from earlier work.
A short description of series [11]: Oleandrin stirred and shaken with water. The series is classed as physicochemical. Conditions: 10 mg stirred and shaken with 10 ml of water, after 20 minutes. As for the experimental part: 10 milligrams (mg) of oleandrin was stirred and shaken with 10 ml of water in a test tube.
A further series concerns AP-1. Conditions: induced by TNF and other agents; cited from earlier work.
Setting [12] is: in 1 ml of 2.5% solution of hydroxypropyl-γ-cyclodextrin.
[13] abbreviates: in 50 ml of 9.8% solution of hydroxypropyl-β-cyclodextrin, 70-80 degree centigrade.
Setting [14] is: in 100 mL of water containing 5 grams of hydroxypropyl-β-cyclodextrin.

Regarding `C[C@H]1O[C@@H](O[C@H]2[C@@H](O)C[C@H](O[C@H]3[C@@H](O)C[C@H](O[C@H]4CC[C@@]5(C)[C@H](CC[C@@H]6[C@@H]5C[C@@H](O)[C@]5(C)[C@@H](C7=CC(=O)OC7)CC[C@]65O)C4)O[C@@H]3C)O[C@@H]2C)C[C@H](O)[C@@H]1O` [digoxin], in series [1], the induction of apoptosis result is listed as “induce apoptosis”. For the same molecule, the “increase of plasma levels” value in series [2] is recorded as “approximately 5.4 fold”. For the same molecule, the “selective toxicity solid vs hematological tumor cells” value in [3] is listed as “selective toxicity against solid tumor cells”. In series [4], the growth and apoptosis entry was “inhibits growth and induce apoptosis”.
As to `C[C@@H]1O[C@@H](O[C@@H]2C=C3CC[C@@H]4[C@H](CC[C@]5(C)[C@@H](c6ccc(=O)oc6)CC[C@]45O)[C@@]3(C)CC2)[C@H](O)[C@H](O)[C@H]1O` [Proscillaridin-A, Proscillaridin A, reference compound], the bioavailability in series [5] was 20-30%. Moreover, the amount effectively solubilized in [6] (in 1 ml of 2% solution of hydroxypropyl-β-cyclodextrin) is reported as 1 mg; in [6] (setting [12]), 1 mg; in series [6] (setting [13]), 100 mg. The molecule also showed an amount dissolved in [6] (setting [14]) of 100 mg. The “selective toxicity solid vs hematological tumor cells” value in series [3] is recorded as “no selective toxicity”.
Regarding `CO[C@@H]1C[C@H](O[C@H]2CC[C@@]3(C)[C@H](CC[C@@H]4[C@@H]3CC[C@]3(C)[C@@H](C5=CC(=O)OC5)CC[C@]43O)C2)O[C@H](C)[C@@H]1O` [Odoroside-A, Odoroside A], the amount dissolved in [6] (setting [14]) amounted to 100 mg.
As to `C[C@H]1O[C@@H](O[C@H]2[C@@H](O)C[C@H](O[C@H]3[C@@H](O)C[C@H](O[C@H]4CC[C@@]5(C)[C@H](CC[C@@H]6[C@@H]5CC[C@]5(C)[C@@H](C7=CC(=O)OC7)CC[C@]65O)C4)O[C@@H]3C)O[C@@H]2C)C[C@H](O)[C@@H]1O` [digitoxin], the “selective toxicity solid vs hematological tumor cells” value in series [3] was “selective toxicity against solid tumor cells”. For the same molecule, the growth and apoptosis result in [4] is “inhibits growth and induce apoptosis”.
`CO[C@H]1C[C@H](O[C@H]2CC[C@@]3(C)[C@H](CC[C@@H]4[C@@H]3CC[C@]3(C)[C@@H](C5=CC(=O)OC5)[C@@H](OC(C)=O)C[C@]43O)C2)O[C@@H](C)[C@@H]1O` [oleandrin, 16b-acetoxy-3b-[(2,6 dideoxy-3-0-methyl-a2-L-arabino-hexopyranosyl)oxy]-14-hydroxy-5β, 14β-card-20(22)-enolide]: the “inhibition of FGF-2 release” value is listed as 45.7% in [7] and 49.9% in series [10]. Also, the cell killing entry in the series with human cancer cells is given as “able to induce cell killing”. For the same molecule, the “time of elimination from the body” value in series [8] is reported as “one to two”. Moreover, the anti-cancer activity entry in series [9] was “significant anti-cancer activities”. Moreover, the “TNF-induced activation of NF-κB” value with NF-κB is “blocked”. In addition, in series [1], the induction of apoptosis result is on record as “induce apoptosis”. Besides, the amount effectively solubilized is recorded as 1 mg in [6] (setting [12]), 1 mg in series [6] (in 1 ml of 5% solution of hydroxypropyl-β-cyclodextrin) and 100 mg in series [6] (setting [13]). Also, the amount dissolved in [6] (in 100 mL of water containing 2.5 grams of hydroxypropyl-β-cyclodextrin (called 2% solution)) is 100 mg. Moreover, the dissolution in water result in [11] was “Appreciable quantities of compound remained out of solution”. The AP-1 activation entry in the series with AP-1 is on record as “blocked”.
Regarding `C[C@@H]1O[C@@H](O[C@H]2C[C@@H](O)[C@]3(CO)[C@H]4[C@H](O)C[C@]5(C)[C@@H](C6=CC(=O)OC6)CC[C@]5(O)[C@@H]4CC[C@]3(O)C2)[C@H](O)[C@H](O)[C@H]1O` [Ouabain], in series [1], the induction of apoptosis result is reported as “induce apoptosis”.
On to `C[C@H]1[C@H](C)CC[C@]2(C(=O)O)CC[C@]3(C)C(=CC[C@@H]4[C@@]5(C)CC[C@H](O)C(C)(C)[C@@H]5CC[C@]43C)[C@H]12` [ursolic acid], for which, in [9], the anti-cancer activity result is “significant anti-cancer activities”.
For the molecule `CO[C@@H]1C[C@H](O[C@H]2CC[C@@]3(C)[C@H](CC[C@@]45O[C@@]46CC[C@H](C4=CC(=O)OC4)[C@@]6(C)CC[C@H]35)C2)O[C@H](C)[C@@H]1O` [adynerin], the anti-cancer activity entry in series [9] was “significant anti-cancer activities”.
